Measured values reported in the supplement of paper PMC9103864.

How the values were obtained:
[1] = test system: BMSC (primary human bone marrow mesenchymal stromal cells); assay: drug sensitivity score (DSS); higher = more sensitive
[2] = test system: BMSC (primary human bone marrow mesenchymal stromal cells); assay: absolute EC50 for viability; higher = less sensitive

CC#CC(=O)N1CCC[C@H]1c1nc(-c2ccc(C(=O)Nc3ccccn3)cc2)c2c(N)nccn12 [Acalabrutinib]
drug sensitivity score [1]: 0
absolute EC50 for viability [2]: > 1 µM

Cc1cc([C@@H](C)Nc2ccccc2C(=O)O)c2nc(N3CCOCC3)cc(=O)n2c1 [AZD-6482]
drug sensitivity score [1]: 2.1
absolute EC50 for viability [2]: > 2.5 µM

CC1(C)NC(=O)N(c2ccc([N+](=O)[O-])c(C(F)(F)F)c2)C1=O [Nilutamide]
drug sensitivity score [1]: 0
absolute EC50 for viability [2]: > 10 µM

CC(C)c1cc(-c2n[nH]c(=O)n2-c2ccc3c(ccn3C)c2)c(O)cc1O [Ganetespib]
drug sensitivity score [1]: 10.3
absolute EC50 for viability [2]: 0.0862 µM

CC[C@H](C)C(=O)O[C@H]1C[C@H](O)C=C2C=C[C@H](C)[C@H](CC[C@@H](O)C[C@@H](O)CC(=O)O)[C@H]21 [Pravastatin]
drug sensitivity score [1]: 0
absolute EC50 for viability [2]: > 10 µM

CNC(=O)[C@@H](NC(=O)[C@H](CC(C)C)[C@H](O)C(=O)NO)C(C)(C)C [Marimastat]
drug sensitivity score [1]: 0
absolute EC50 for viability [2]: > 10 µM

O=C(c1ccc(F)c(F)c1Nc1ccc(I)cc1F)N1CC(O)([C@@H]2CCCCN2)C1 [Cobimetinib]
drug sensitivity score [1]: 4.3
absolute EC50 for viability [2]: > 1 µM

Cc1ccc(NC(=O)c2ccc(CN3CCN(C)CC3)cc2)cc1Nc1nc(-c2cccnc2)cs1 [Masitinib]
drug sensitivity score [1]: 8.8
absolute EC50 for viability [2]: 2.86 µM

CCC(C)(C)C(=O)O[C@H]1C[C@@H](C)C=C2C=C[C@H](C)[C@H](CC[C@@H]3C[C@@H](O)CC(=O)O3)[C@H]21 [Simvastatin]
drug sensitivity score [1]: 2.4
absolute EC50 for viability [2]: > 10 µM

CO[C@@H](C)Cn1c(=O)n(C)c2cnc3ccc(-c4cncc(C(C)(C)O)c4)cc3c21
drug sensitivity score [1]: 10.5
absolute EC50 for viability [2]: 0.257 µM

CCc1cnn2c(NCc3ccc[n+]([O-])c3)cc(N3CCCC[C@H]3CCO)nc12 [Dinaciclib]
drug sensitivity score [1]: 8.1
absolute EC50 for viability [2]: > 1 µM

COc1cccc2c1C(=O)c1c(O)c3c(c(O)c1C2=O)C[C@@](O)(C(=O)CO)C[C@@H]3O[C@H]1C[C@H](N)[C@H](O)[C@H](C)O1 [Doxorubicin]
drug sensitivity score [1]: 6.8
absolute EC50 for viability [2]: 0.219 µM

CC[C@]1(O)C[C@H]2CN(CCc3c([nH]c4ccccc34)[C@@](C(=O)OC)(c3cc4c(cc3OC)N(C=O)[C@H]3[C@@](O)(C(=O)OC)[C@H](OC(C)=O)[C@]5(CC)C=CCN6CC[C@]43[C@@H]65)C2)C1 [Vincristine]
drug sensitivity score [1]: 3.4
absolute EC50 for viability [2]: > 1 µM

C=C1C[C@@H]2CC[C@@]34C[C@H]5O[C@H]6[C@@H](O3)[C@H]3O[C@H](CC[C@@H]3O[C@H]6[C@H]5O4)CC(=O)C[C@@H]3[C@@H](OC)[C@@H](C[C@H](O)CN)O[C@H]3C[C@H]3O[C@@H](CC[C@@H]1O2)C[C@@H](C)C3=C [Eribulin]
drug sensitivity score [1]: 12
absolute EC50 for viability [2]: > 1 µM

Cc1ccccc1CN1C(=O)C2=C(CCN(Cc3ccccc3)C2)N2CCN=C12 [TIC10]
drug sensitivity score [1]: 3.8
absolute EC50 for viability [2]: > 25 µM

Cc1c(N)nc([C@H](CC(N)=O)NC[C@H](N)C(N)=O)nc1C(=O)N[C@H](C(=O)N[C@H](C)[C@@H](O)[C@H](C)C(=O)N[C@H](C(=O)NCCc1nc(-c2nc(C(=O)NCCC[S+](C)C)cs2)cs1)[C@@H](C)O)[C@@H](OC1OC(CO)C(O)C(O)C1OC1OC(CO)C(O)C(OC(N)=O)C1O)c1cnc[nH]1 (stereo not given in full) [Bleomycin]
drug sensitivity score [1]: 2.5
absolute EC50 for viability [2]: > 10 µM

CC1=C(/C=C/C(C)=C/C=C/C(C)=C/C(=O)O)C(C)(C)CCC1 [Tretinoin]
drug sensitivity score [1]: 0
absolute EC50 for viability [2]: > 10 µM

Cc1cc(C)c(CNC(=O)c2cc(-c3ccc(CN4CCOCC4)cc3)cc3c2cnn3C2CCCC2)c(=O)[nH]1 [EPZ-5687]
drug sensitivity score [1]: 0
absolute EC50 for viability [2]: 9.93 µM

Cn1nccc1Nc1nccc(-c2ccn([C@H](CO)c3ccc(Cl)c(F)c3)c(=O)c2)n1 [Ravoxertinib]
drug sensitivity score [1]: 0
absolute EC50 for viability [2]: > 10 µM

C[C@]1(O)C[C@@H](c2nc(-c3ccc4ccc(-c5ccccc5)nc4c3)c3c(N)nccn32)C1 [Linsitinib]
drug sensitivity score [1]: 2.9
absolute EC50 for viability [2]: > 10 µM
